Measurements from patent US20230365592A1 (Agios Pharmaceuticals, Inc., priority 2022, published 2023).
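Also: after compound treatment, cells received sepiapterin plus isotope-labelled Phenylalanine for 4 hours, then labelled Tyrosine in the medium was quantified, 10-point 2-fold dilution series run in duplicate.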

The compounds below were run against T1, human PAH with the R408W mutation (Homo sapiens, UniProt P00439, R408W) (assay: Cell Based Phenylalanine Flux Assay). Details: A375 cells expressing R408W PAH; 24 hrs with compound, then 20 µM sepiapterin and 800 µM 13C9,15N-Phenylalanine for 4 hours; 13C-Tyrosine by LC-MS; average where tested multiple times; read-out: AC50.
T1 construct: expressed in transfected cells
T1 sequence (P00439 1-452 R408W): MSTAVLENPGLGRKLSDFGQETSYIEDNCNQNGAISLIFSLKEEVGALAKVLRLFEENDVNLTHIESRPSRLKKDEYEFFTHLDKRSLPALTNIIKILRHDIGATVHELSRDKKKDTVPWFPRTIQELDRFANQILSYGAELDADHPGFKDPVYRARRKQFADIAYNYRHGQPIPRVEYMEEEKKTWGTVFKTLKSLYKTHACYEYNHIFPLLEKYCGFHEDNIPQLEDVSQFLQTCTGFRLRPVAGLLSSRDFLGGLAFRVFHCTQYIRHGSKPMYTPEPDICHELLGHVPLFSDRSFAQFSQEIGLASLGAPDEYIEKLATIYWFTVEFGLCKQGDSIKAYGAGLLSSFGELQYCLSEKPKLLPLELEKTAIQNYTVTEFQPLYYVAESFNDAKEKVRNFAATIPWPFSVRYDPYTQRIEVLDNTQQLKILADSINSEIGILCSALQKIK
With `COc1cccn2nc(C3c4nc[nH]c4CCN3C(=O)c3nnc(-c4ncccn4)o3)cc12` (stereo not drawn) the AC50 was > 5 µM. In the case of `Cc1cccn2nc(C3c4nc[nH]c4CCN3c3nnc(-c4ccncn4)o3)cc12` (stereo not drawn), the AC50 is reported as 1 to 5 µM. For `O=C(c1cnco1)N1CCc2[nH]cnc2C1c1cc2ccc(C(F)(F)F)cn2n1` (stereo not drawn), the AC50 was 1 to 5 µM. `O=C(c1nnc(C2CC(F)(F)C2)o1)N1CCc2[nH]cnc2C1c1cc2cccc(Cl)n2n1` (stereo not drawn) was tested, and the AC50 was > 5 µM. With `Cc1nc(C(C)O)oc1C(=O)N1CCc2[nH]cnc2C1c1cc2c(F)cccn2n1` (stereo not drawn) the AC50 was 1 to 5 µM. `CN(C)Cc1ccc2c(C(=O)N3CCc4[nH]cnc4C3c3cc4cccc(Cl)n4n3)cnn2c1` (stereo not drawn) was tested, and the AC50 was 1 to 5 µM. In the case of `Cc1ccn2nc(C3c4nc[nH]c4CCN3C(=O)c3nnc(C)o3)cc2c1` (stereo not drawn), the AC50 is reported as > 5 µM. With `O=C(c1cnn(CC(F)(F)F)c1Cl)N1CCc2[nH]cnc2C1c1cc2ccccn2n1` (stereo not drawn) the AC50 was 1 to 5 µM. `O=C(c1cnc(-c2cnccn2)o1)N1CCc2[nH]cnc2C1c1cc2ccccn2n1` (single isomer, unassigned) gave an AC50 of 1 to 5 µM.

Same assay, conditions: A375 cells expressing human PAH R408W; 24 hrs compound incubation; 13C-Tyrosine by LC-MS; average where tested multiple times; read-out: AC50
For `FC(F)(F)c1nnc(N2CCc3[nH]cnc3[C@H]2c2cc3c(Cl)cccn3n2)o1` [Example 1849, (S)-2-(4-(4-chloropyrazolo[1,5-a]pyridin-2-yl)-6,7-dihydro-1H-imidazo[4,5-c]pyridin-5(4H)-yl)-5-(trifluoromethyl)-1,3,4-oxadiazole], the AC50 was < 0.5 µM. For `Fc1cccc(F)c1-c1nnc(N2CCc3[nH]cnc3[C@H]2c2cc3cccc(C(F)(F)F)n3n2)o1` [Example 2133, (S)-2-(2,6-difluorophenyl)-5-(4-(7-(trifluoromethyl)pyrazolo[1,5-a]pyridin-2-yl)-1,4,6,7-tetrahydro-5H-imidazo[4,5-c]pyridin-5-yl)-1,3,4-oxadiazole], the AC50 was < 0.5 µM. With `Cc1cccn2nc([C@H]3c4nc[nH]c4CCN3c3nnc(-c4cccc(F)n4)o3)cc12` [Example 2360, (R)-2-(6-fluoropyridin-2-yl)-5-(4-(4-methylpyrazolo[1,5-a]pyridin-2-yl)-1,4,6,7-tetrahydro-5H-imidazo[4,5-c]pyridin-5-yl)-1,3,4-oxadiazole] the AC50 was > 5 µM. In the case of `CCc1cccn2nc([C@H]3c4nc[nH]c4CCN3C(=O)c3nnc(-c4ccccn4)o3)cc12` [Example 1894, (R)-(4-(4-ethylpyrazolo[1,5-a]pyridin-2-yl)-1,4,6,7-tetrahydro-5H-imidazo[4,5-c]pyridin-5-yl)(5-(pyridin-2-yl)-1,3,4-oxadiazol-2-yl)methanone], the AC50 is reported as > 5 µM. In the case of `Cc1cccn2nc([C@H]3c4nc[nH]c4CCN3C(=O)c3cnc(-c4cnccn4)o3)cc12` [Example 2241, (R)-(4-(4-methylpyrazolo[1,5-a]pyridin-2-yl)-1,4,6,7-tetrahydro-5H-imidazo[4,5-c]pyridin-5-yl)(2-(pyrazin-2-yl)oxazol-5-yl)methanone], the AC50 is reported as > 5 µM. With `Cc1cccnc1-c1nnc(N2CCc3[nH]cnc3[C@H]2c2cc3c(C)cccn3n2)o1` [Example 2269, (S)-2-(4-(4-methylpyrazolo[1,5-a]pyridin-2-yl)-1,4,6,7-tetrahydro-5H-imidazo[4,5-c]pyridin-5-yl)-5-(3-methylpyridin-2-yl)-1,3,4-oxadiazole] the AC50 was < 0.5 µM.

Same assay, conditions: A375 cells expressing human R408W PAH; 24 hrs compound incubation; 13C-Tyrosine by LC-MS; average where tested multiple times; read-out: AC50
With `Cn1ccc(-c2nnc(C(=O)N3CCc4[nH]cnc4[C@@H]3c3cc4c(F)cccn4n3)o2)n1` [Example 731, (R)-(4-(4-fluoropyrazolo[1,5-a]pyridin-2-yl)-6,7-dihydro-1H-imidazo[4,5-c]pyridin-5(4H)-yl)(5-(1-methyl-1H-pyrazol-3-yl)-1,3,4-oxadiazol-2-yl)methanone] the AC50 was > 5 µM. In the case of `O=C(c1nnc(-c2ccccn2)o1)N1CCc2[nH]cnc2[C@@H]1c1cc2c(Cl)cccn2n1` [Example 734, (R)-(4-(4-chloropyrazolo[1,5-a]pyridin-2-yl)-6,7-dihydro-1H-imidazo[4,5-c]pyridin-5(4H)-yl)(5-(pyridin-2-yl)-1,3,4-oxadiazol-2-yl)methanone], the AC50 is reported as > 5 µM. For `CCOc1cccc2cc([C@H]3c4nc[nH]c4CCN3C(=O)c3ocnc3C(F)F)nn12` [Example 1241, (R)-(4-(difluoromethyl)oxazol-5-yl)(4-(7-ethoxypyrazolo[1,5-a]pyridin-2-yl)-6,7-dihydro-1H-imidazo[4,5-c]pyridin-5(4H)-yl)methanone], the AC50 was 1 to 5 µM. With `CC(C)(O)c1nc(C(F)F)c(C(=O)N2CCc3[nH]cnc3[C@@H]2c2cc3ccccn3n2)o1` [Example 671, (R)-(4-(difluoromethyl)-2-(2-hydroxypropan-2-yl)oxazol-5-yl)(4-(pyrazolo[1,5-a]pyridin-2-yl)-6,7-dihydro-1H-imidazo[4,5-c]pyridin-5(4H)-yl)methanone] the AC50 was > 5 µM. `COc1cccn2nc([C@@H]3c4nc[nH]c4CCN3C(=O)c3nnc(C4CC4)o3)cc12` [Example 1168, (S)-(5-cyclopropyl-1,3,4-oxadiazol-2-yl)(4-(4-methoxypyrazolo[1,5-a]pyridin-2-yl)-6,7-dihydro-1H-imidazo[4,5-c]pyridin-5(4H)-yl)methanone] gave an AC50 of 0.5 to 1 µM. `FC(F)c1cccn2nc([C@@H]3c4nc[nH]c4CCN3c3nnc(C4CC4)o3)cc12` [Example 1607, (S)-2-cyclopropyl-5-(4-(4-(difluoromethyl)pyrazolo[1,5-a]pyridin-2-yl)-6,7-dihydro-1H-imidazo[4,5-c]pyridin-5(4H)-yl)-1,3,4-oxadiazole] showed an AC50 of 0.5 to 1 µM. In the case of `Cc1cccn2nc([C@H]3c4nc[nH]c4CCN3c3nnc(C(F)F)o3)cc12` [Example 1710, (R)-2-(difluoromethyl)-5-(4-(4-methylpyrazolo[1,5-a]pyridin-2-yl)-6,7-dihydro-1H-imidazo[4,5-c]pyridin-5(4H)-yl)-1,3,4-oxadiazole], the AC50 is reported as > 5 µM. Compound `Cc1cccc2cc([C@H]3c4nc[nH]c4CCN3C(=O)c3oc(C4(O)CC4)nc3C(F)F)nn12` [Example 1281, (R)-(4-(difluoromethyl)-2-(1-hydroxycyclopropyl)oxazol-5-yl)(4-(7-methylpyrazolo[1,5-a]pyridin-2-yl)-6,7-dihydro-1H-imidazo[4,5-c]pyridin-5(4H)-yl)methanone] has an AC50 of 1 to 5 µM. `Cc1nc([C@H](C)O)oc1C(=O)N1CCc2[nH]cnc2[C@H]1c1cc2c(C)cccn2n1` [Example 750, (2-((S)-1-hydroxyethyl)-4-methyloxazol-5-yl)((S)-4-(4-methylpyrazolo[1,5-a]pyridin-2-yl)-6,7-dihydro-1H-imidazo[4,5-c]pyridin-5(4H)-yl)methanone] was tested, and the AC50 was < 0.5 µM. With `O=C(c1nnc(-c2ncccc2F)o1)N1CCc2[nH]cnc2[C@@H]1c1cc2cccc(Cl)n2n1` [Example 983, (R)-(4-(7-chloropyrazolo[1,5-a]pyridin-2-yl)-6,7-dihydro-1H-imidazo[4,5-c]pyridin-5(4H)-yl)(5-(3-fluoropyridin-2-yl)-1,3,4-oxadiazol-2-yl)methanone] the AC50 was > 5 µM. With `O=C(c1nnc(-c2cnn(C(F)(F)F)c2)o1)N1CCc2[nH]cnc2[C@H]1c1cc2c(C(F)(F)F)cccn2n1` [Example 1538, (S)-(5-(1-(trifluoromethyl)-1H-pyrazol-4-yl)-1,3,4-oxadiazol-2-yl)(4-(4-(trifluoromethyl)pyrazolo[1,5-a]pyridin-2-yl)-6,7-dihydro-1H-imidazo[4,5-c]pyridin-5(4H)-yl)methanone] the AC50 was 0.5 to 1 µM. For `Clc1cccn2nc([C@@H]3c4nc[nH]c4CCN3c3nnc(-c4ccccn4)o3)cc12` [Example 1623, (S)-2-(4-(4-chloropyrazolo[1,5-a]pyridin-2-yl)-6,7-dihydro-1H-imidazo[4,5-c]pyridin-5(4H)-yl)-5-(pyridin-2-yl)-1,3,4-oxadiazole], the AC50 was < 0.5 µM.
